A short description of this data set: Drug release from PCMC composite coating with PLGA diffusion barrier. It counts as physicochemical. To be noted: release from HAP/PLGA PCMC coating of Example 9 (paclitaxel in HAP phase, Rapamycin in polymer phase) covered with 2 μm thick PLGA (85:15) layer. On the procedure: Porous HAP coating was deposited on stent as in the above Example 2. The HAP porous coating stents was impregnated into 2 wt % paclitaxel methanol solution for 20 min and then removed extra solution by high speed spinning, then dried in an oven for 2 hours. The paclitaxel was filled into mesopores and partial into large pore micropores. The paclitaxel loaded stents were subsequently impregnated with 10 wt % PLGA acetone solution containing 2 wt % Rapamycin and then the extra solution removed by spinning. The biopolymer PLGA filled inside pores provides extra flexibility for HAP coatings and diffusion barrier for controlling drug release profiles. Rapamycin in the polymer phase will release much faster than that of paclitaxel only in the HAP phase.
As illustrated in the above Example 9, different drugs were encapsulated into the polymer and HAP phases. In order to add further controls for drug release profile, e.g. to further slow down the drug release rate, a functional diffusion barrier was deposited on the surface of the composite PCMC coating. In this particular example, a 2 μm thick PLGA (85:15) layer was deposited on the PCMC surface by spin-coating. Rapamycin release from such modified PCMC coating was sustained for 3-5 months and paclitaxel for 6-12 months.

With `CC(=O)O[C@H]1C(=O)[C@@]2(C)[C@H]([C@H](OC(=O)c3ccccc3)[C@]3(O)C[C@H](OC(=O)[C@H](O)[C@@H](NC(=O)c4ccccc4)c4ccccc4)C(C)=C1C3(C)C)[C@]1(OC(C)=O)CO[C@@H]1C[C@@H]2O` [paclitaxel], the “drug release sustained for” value is listed as 6-12 months.

These data come from patent US20060199876A1, “Bioceramic composite coatings and process for making same” (The University of British Columbia, priority 2005, published 2006).
